# Results: patent publication US20220331327A1, “THE USE OF PARAXANTHINE TO IMPROVE PERFORMANCE IN VIDEO GAMERS” (priority 2021, published 2022)
# How the values were obtained:
# [1] = tested on: healthy men and women playing video games; experiment: Stroop Color and Word Test during gaming; type: in vivo, human; details: 200 mg daily
# Procedure: The effectiveness of study-products (paraxanthine and placebo) was assessed by measuring in-game performance, cognition during gaming (Stroop Test) and mood status during gaming (Profile of Mood States (POMS)). The Stroop Color and Word Test (SCWT) was administered after 0, 3, and 6 six weeks of supplementation to assess cognitive performance during gaming throughout the study protocol. The Stroop Test was completed pre-dose, after 60 minutes of gaming and immediately after completing 120 minutes of video gaming during all study visits. The SCWT is a neuropsychological test that follows the procedures of Stroop (Stroop 1935). Briefly, the SCWT (with congruency) was administered for five continuous minutes via an online software application. One of four words (red, yellow, green, blue) appeared at random, until a selection was made, then a new word appeared at random. Subjects selected the response which matches the color of the ink of the randomly selected word (not the color that the word described). The number of correct answers served as the basis of a total Stroop score.
# [2] = tested on: healthy men and women playing video games; experiment: Video game performance, Super Smash Brothers Ultimate; type: in vivo, human; set-up: Damage Taken, Mean of visit / Damage Taken, Mean ± SD: unit not given here; details: 200 mg daily; for Damage Taken, Mean ± SD / Falls (Deaths), Mean ± SD / Hit Percentage, Mean ± SD / Damage Taken, Mean of visit / Falls (Deaths), Mean of visit / Hit Percentage, Mean of visit: n = 5; for Damage Taken, Mean of visit / Falls (Deaths), Mean of visit / Hit Percentage, Mean of visit: mean of 20-120 min; for Damage Taken, Δ Baseline / Falls (Deaths), Δ Baseline: versus baseline; for Damage Taken, Δ PLA / Falls (Deaths), Δ PLA: versus placebo
# Procedure: The effectiveness of study-products (paraxanthine and placebo) was assessed by measuring in-game performance, cognition during gaming (Stroop Test) and mood status during gaming (Profile of Mood States (POMS)). All study participants played the game Super Smash Brothers Ultimate (Nintendo, Release date: Dec. 7, 2018). Each study participant arrived, completed all necessary testing and began playing the game. Game consoles and controllers were available, but if participants wanted to bring their own controller, they were allowed to do so. The game was be set to the same level and strategy for each player. During each session, study participants played the game for 60 minutes and took a break to complete the Stroop Test and POMS. Participants then played the game for an additional 60 minutes before completing their third tests. […]
# [3] = gaming between 100 and 120 minutes of play
smiles,measurement,setting,value
"Cn1c(=O)[nH]c2ncn(C)c2c1=O [Paraxanthine, paraxanthine]",increase in cognitive performance (Stroop test score) compared to baseline,"[1]; 3 weeks, after one hour of gaming",39%
same,increase in cognitive performance (Stroop test score) compared to baseline,"[1]; 3 weeks, after two hours of gaming",89%
same,increase in cognitive performance (Stroop test score) compared to baseline,"[1]; 3 weeks, pre-gaming",25%
same,increase in cognitive performance (Stroop test score) compared to baseline,"[1]; 6 weeks, after one hour of gaming",89%
same,increase in cognitive performance (Stroop test score) compared to baseline,"[1]; 6 weeks, after two hours of gaming",119%
same,increase in cognitive performance (Stroop test score) compared to baseline,"[1]; 6 weeks, pre-gaming",25%
same,habituation,[1]; even after 6 weeks,No habituation was observed
same,"Damage Taken, Mean ± SD","[2]; 3 weeks, 20 min",870.00 ± 301.09
same,"Falls (Deaths), Mean ± SD","[2]; 3 weeks, 20 min",5.75 ± 2.63
same,"Hit Percentage, Mean ± SD","[2]; 3 weeks, 20 min",37.75 ± 9.64
same,"Damage Taken, Mean ± SD","[2]; 3 weeks, 40 min",1103.00 ± 253.95
same,"Falls (Deaths), Mean ± SD","[2]; 3 weeks, 40 min",8 ± 3.67
same,"Hit Percentage, Mean ± SD","[2]; 3 weeks, 40 min",35.8 ± 8.93
same,"Damage Taken, Mean ± SD","[2]; 3 weeks, 60 min",987.25 ± 396.60
same,"Falls (Deaths), Mean ± SD","[2]; 3 weeks, 60 min",7 ± 3.83
same,"Hit Percentage, Mean ± SD","[2]; 3 weeks, 60 min",38 ± 5.72
same,"Damage Taken, Mean ± SD","[2]; 3 weeks, 80 min",1351.80 ± 341.08
same,"Falls (Deaths), Mean ± SD","[2]; 3 weeks, 80 min",9 ± 3.32
same,"Hit Percentage, Mean ± SD","[2]; 3 weeks, 80 min",35.2 ± 8.17
same,"Damage Taken, Mean ± SD","[2]; 3 weeks, 100 min",1619.60 ± 383.27
same,"Falls (Deaths), Mean ± SD","[2]; 3 weeks, 100 min",11.4 ± 4.04
same,"Hit Percentage, Mean ± SD","[2]; 3 weeks, 100 min",29.4 ± 8.08
same,"Damage Taken, Mean ± SD","[2]; 3 weeks, 120 min",2006.60 ± 376.34
same,"Falls (Deaths), Mean ± SD","[2]; 3 weeks, 120 min",13 ± 3.74
same,"Hit Percentage, Mean ± SD","[2]; 3 weeks, 120 min",26.4 ± 3.51
same,"Damage Taken, Mean of visit",[2]; 3 weeks,"1,323.0"
same,"Falls (Deaths), Mean of visit",[2]; 3 weeks,9.0
same,"Hit Percentage, Mean of visit",[2]; 3 weeks,33.8
same,"Damage Taken, Mean ± SD","[2]; 6 weeks, 20 min",723.62 ± 457.07
same,"Falls (Deaths), Mean ± SD","[2]; 6 weeks, 20 min",5.2 ± 1.92
same,"Hit Percentage, Mean ± SD","[2]; 6 weeks, 20 min",28.09 ± 16.43
same,"Damage Taken, Mean ± SD","[2]; 6 weeks, 40 min",1077.40 ± 258.42
same,"Falls (Deaths), Mean ± SD","[2]; 6 weeks, 40 min",8 ± 2.74
same,"Hit Percentage, Mean ± SD","[2]; 6 weeks, 40 min",42.2 ± 12.46
same,"Damage Taken, Mean ± SD","[2]; 6 weeks, 60 min",1182.80 ± 317.56
same,"Falls (Deaths), Mean ± SD","[2]; 6 weeks, 60 min",7.4 ± 2.7
same,"Hit Percentage, Mean ± SD","[2]; 6 weeks, 60 min",39.4 ± 6.88
same,"Damage Taken, Mean ± SD","[2]; 6 weeks, 80 min",1425.80 ± 173.33
same,"Falls (Deaths), Mean ± SD","[2]; 6 weeks, 80 min",10 ± 2.55
same,"Hit Percentage, Mean ± SD","[2]; 6 weeks, 80 min",33 ± 5.43
same,"Damage Taken, Mean ± SD","[2]; 6 weeks, 100 min",1697.60 ± 336.71
same,"Falls (Deaths), Mean ± SD","[2]; 6 weeks, 100 min",13.2 ± 2.59
same,"Hit Percentage, Mean ± SD","[2]; 6 weeks, 100 min",30.4 ± 4.98
same,"Damage Taken, Mean ± SD","[2]; 6 weeks, 120 min",1921.80 ± 379.30
same,"Falls (Deaths), Mean ± SD","[2]; 6 weeks, 120 min",14.2 ± 3.56
same,"Hit Percentage, Mean ± SD","[2]; 6 weeks, 120 min",27.2 ± 4.15
same,"Damage Taken, Mean of visit",[2]; 6 weeks,"1,338.2"
same,"Falls (Deaths), Mean of visit",[2]; 6 weeks,9.7
same,"Hit Percentage, Mean of visit",[2]; 6 weeks,33.4
same,"Damage Taken, Mean ± SD","[2]; Baseline visit, 20 min",981.20 ± 457.06
same,"Falls (Deaths), Mean ± SD","[2]; Baseline visit, 20 min",7 ± 3.54
same,"Hit Percentage, Mean ± SD","[2]; Baseline visit, 20 min",36.6 ± 11.13
same,"Damage Taken, Mean ± SD","[2]; Baseline visit, 40 min",1306.75 ± 553.65
same,"Falls (Deaths), Mean ± SD","[2]; Baseline visit, 40 min",10.5 ± 5.26
same,"Hit Percentage, Mean ± SD","[2]; Baseline visit, 40 min",30.25 ± 11.15
same,"Damage Taken, Mean ± SD","[2]; Baseline visit, 60 min",1207.60 ± 425.74
same,"Falls (Deaths), Mean ± SD","[2]; Baseline visit, 60 min",8 ± 3.39
same,"Hit Percentage, Mean ± SD","[2]; Baseline visit, 60 min",34.6 ± 9.92
same,"Damage Taken, Mean ± SD","[2]; Baseline visit, 80 min",1527.80 ± 541.49
same,"Falls (Deaths), Mean ± SD","[2]; Baseline visit, 80 min",10.8 ± 4.97
same,"Hit Percentage, Mean ± SD","[2]; Baseline visit, 80 min",34.2 ± 8.23
same,"Damage Taken, Mean ± SD","[2]; Baseline visit, 100 min",1647.20 ± 359.67
same,"Falls (Deaths), Mean ± SD","[2]; Baseline visit, 100 min",11 ± 3.08
same,"Hit Percentage, Mean ± SD","[2]; Baseline visit, 100 min",30.6 ± 5.98
same,"Damage Taken, Mean ± SD","[2]; Baseline visit, 120 min",2067.80 ± 803.18
same,"Falls (Deaths), Mean ± SD","[2]; Baseline visit, 120 min",16.6 ± 8.59
same,"Hit Percentage, Mean ± SD","[2]; Baseline visit, 120 min",24.4 ± 4.28
same,"Damage Taken, Mean of visit",[2]; Baseline visit,"1,460.9"
same,"Falls (Deaths), Mean of visit",[2]; Baseline visit,10.65
same,"Hit Percentage, Mean of visit",[2]; Baseline visit,31.7
same,"Damage Taken, Δ Baseline",[2]; 3 weeks,−9.4%
same,"Falls (Deaths), Δ Baseline",[2]; 3 weeks,−15.5%
same,"Damage Taken, Δ PLA",[2]; 3 weeks,−9.5%
same,"Falls (Deaths), Δ PLA",[2]; 3 weeks,−21.7%
same,"Damage Taken, Δ Baseline",[2]; 6 weeks,−8.4%
same,"Falls (Deaths), Δ Baseline",[2]; 6 weeks,−8.9%
same,"Damage Taken, Δ PLA",[2]; 6 weeks,−14.0%
same,"Falls (Deaths), Δ PLA",[2]; 6 weeks,−15.6%
same,reduction of own damage taken compared to baseline (prior to supplementation),[2]; after 3 weeks,9.4%
same,reduction of own damage taken compared to placebo,[2]; after 3 weeks,9.5%
same,reduction of own deaths compared to baseline (prior to supplementation),[2]; after 3 weeks,15.5%
same,reduction of own deaths compared to placebo,[2]; after 3 weeks,21.7%
same,"improvement over placebo, damage taken, later stages of gaming",[2]; [3],30.9%
same,"improvement over placebo, number of deaths, later stages of gaming",[2]; [3],34%
